According to PMC10381184, “Unprecedented Antimicrobial and Cytotoxic Polyketides from Cultures of Diaporthe africana sp. nov” (Journal of Fungi, 2023):
Converted amounts (≈) assume the structure as drawn. Read-outs that look alike come from different tables or passages of the source.

Tests used:
[1] = system: Acinetobacter baumannii DSM 30008; test: MIC serial dilution assay; type: cell-based; design: key: (-): No inhibition; details: Acinetobacter baumanii; starting concentration 66.7 μg/mL
Procedure: (§1) The Minimum Inhibitory Concentration (MIC) of the isolated metabolites (1–8) was evaluated using serial dilution assays in a 96-well microtiter plate against a panel of Gram-positive bacteria, namely Bacillus subtilis DSM 10, Mycobacterium smegmatis ATCC 700084 and Staphylococcus aureus DSM 346; Gram-negative bacteria, including Acinetobacter baumannii DSM 30008, Chromobacterium violaceum DSM 30191, Escherichia coli DSM 1116 and Pseudomonas aeruginosa PA14 and fungal cultures of Candida albicans DSM 1665, Mucor hiemalis DSM 2656, Rhodotorula glutinis DSM 10134, Schizosaccharomyces pombe DSM 70572 and Wickerhamomyces anomalus DSM 6766, according to previously described protocols. The MTT-based cytotoxicity assay was performed against several cancer cell lines (human endocervical adenocarcinoma KB 3.1, mouse fibroblasts L929, squamous cancer A431, breast cancer MCF-7, lung cancer A549, ovary cancer SK-OV-3, and prostate cancer PC-3) in accordance with our previously established protocols.

Bacillus subtilis DSM 10 = test: MIC serial dilution assay; type: cell-based; design: key: (-): No inhibition
Procedure: as §1

[2] = system: Candida albicans DSM 1665; test: MIC serial dilution assay; type: cell-based; design: key: (-): No inhibition; details: starting concentration 66.7 μg/mL
Procedure: as §1

[3] = system: Chromobacterium violaceum DSM 30191; test: MIC serial dilution assay; type: cell-based; design: key: (-): No inhibition; details: starting concentration 66.7 μg/mL
Procedure: as §1

[4] = system: Escherichia coli DSM 1116; test: MIC serial dilution assay; type: cell-based; design: key: (-): No inhibition; details: starting concentration 66.7 μg/mL
Procedure: as §1

Mucor hiemalis DSM 2656 = test: MIC serial dilution assay; type: cell-based; design: key: (-): No inhibition
Procedure: as §1

[5] = system: Mycobacterium smegmatis ATCC 700084; test: MIC serial dilution assay; type: cell-based; design: key: (-): No inhibition
Procedure: as §1

[6] = system: Pseudomonas aeruginosa PA14; test: MIC serial dilution assay; type: cell-based; design: key: (-): No inhibition; details: starting concentration 66.7 μg/mL
Procedure: as §1

[7] = system: Rhodotorula glutinis DSM 10134; test: MIC serial dilution assay; type: cell-based; design: key: (-): No inhibition; details: Rhodoturula glutinis, starting concentration 66.7 μg/mL
Procedure: as §1

[8] = system: Schizosaccharomyces pombe DSM 70572; test: MIC serial dilution assay; type: cell-based; design: key: (-): No inhibition
Procedure: as §1

[9] = system: Staphylococcus aureus DSM 346; test: MIC serial dilution assay; type: cell-based; design: key: (-): No inhibition
Procedure: as §1

[10] = system: Wickerhamomyces anomalus DSM 6766; test: MIC serial dilution assay; type: cell-based; design: key: (-): No inhibition
Procedure: as §1

[11] = system: human endocervical adenocarcinoma KB 3.1; test: MTT-based cytotoxicity assay; type: cell-based; details: KB3.1, starting concentration 37 µg/mL
Procedure: as §1

mouse fibroblasts L929 = test: MTT-based cytotoxicity assay; type: cell-based; details: starting concentration 37 µg/mL, read-out: IC50
Procedure: as §1

[12] = system: panel of bacteria and fungi; test: Antimicrobial serial dilution assay, whole panel; type: cell-based; details: result in words
Procedure: as §1

mammalian cell lines = test: cells; type: cell-based
Procedure: as §1

breast cancer MCF-7 = test: MTT-based cytotoxicity assay; type: cell-based; details: MCF-7, starting concentration 37 µg/mL, read-out: IC50
Procedure: as §1

lung cancer A549 = test: MTT-based cytotoxicity assay; type: cell-based; details: starting concentration 37 µg/mL, read-out: IC50
Procedure: as §1

ovary cancer SK-OV-3 = test: MTT-based cytotoxicity assay; type: cell-based; details: SKOV-3, starting concentration 37 µg/mL, read-out: IC50
Procedure: as §1

prostate cancer PC-3 = test: MTT-based cytotoxicity assay; type: cell-based; details: PC-3; starting concentration 37 µg/mL; read-out: IC50
Procedure: as §1

squamous cancer A431 = test: MTT-based cytotoxicity assay; type: cell-based; details: A431, starting concentration 37 µg/mL, read-out: IC50
Procedure: as §1

MptpB = details: result in words; ref 63 (Cui et al.); cited from earlier work
[13] = starting concentration 66.7 μg/mL
[14] = Homo sapiens, KB 3-1, read-out: IC50
[15] = DSM10, starting concentration 66.7 μg/mL, read-out: MIC
[16] = DSM2656, starting concentration 66.7 μg/mL, read-out: MIC
[17] = DSM346, starting concentration 66.7 μg/mL, read-out: MIC

| Compound | MIC [1] | MIC (Bacillus subtilis DSM 10; [13]) | MIC [2] | MIC [3] | MIC [4] | MIC (Mucor hiemalis DSM 2656; [13]) | MIC [5, 13] | MIC [6] | MIC [7] | MIC [8, 13] | MIC [9, 13] | MIC [10, 13] | IC50 [11, 14] | IC50 (mouse fibroblasts L929; Mus musculus) | IC50 (prostate cancer PC-3) | other results |
| --- | --- | --- | --- | --- | --- | --- | --- | --- | --- | --- | --- | --- | --- | --- | --- | --- |
| CCC(C)C1OC(=O)CNC(=O)CNC(=O)[C@H]([C@@H](C)O)NC(=O)C(C)C(O)CC(O)CC/C=C/C1C (some centres unmarked) [Compound 1, eucalactam B] | - | - | - | - | - | - | - | - | - | - | - | - | > 72 µM | > 72 µM |  | antimicrobial activity against the tested microorganisms [12]: devoid of any activity; cytotoxic effect (mammalian cell lines; mammalian cell lines, result in words): did not show any cytotoxic effect |
| CC(C)=CCc1ccc(O)c2c1C(O)(c1cc(C)cc3c1OC(C(C)(C)O)CO3)OC2=O (centres unmarked) [Compound 2, isoprenylisobenzofuran B] | - | - | - | - | - | - | - | - | - | - | - | - | > 84 µM | > 84 µM |  | IC50 [11]: slight inhibition; antimicrobial activity against the tested microorganisms [12]: no activity |
| CC(C)=CCc1ccc(O)c(C=O)c1C(=O)c1cc(C)cc2c1OC(C(C)(C)O)CO2 (centres unmarked) [Compound 6, tenellone B] | - |  | - | - | - |  | - | - |  |  |  |  | 20 µM | 49.5 µM | 17.9 µM | MIC (Bacillus subtilis DSM 10; [15]): 16.6 µg/mL (≈ 39.1 µM); MIC (Mucor hiemalis DSM 2656; [16]): 16.6 µg/mL (≈ 39.1 µM); MIC ([7]; Rhodotorula glutinis, DSM10134, read-out: MIC): 16.6 µg/mL (≈ 39.1 µM); MIC ([8]; DSM70572, starting concentration 66.7 μg/mL, read-out: MIC): 66.6 µg/mL (≈ 157 µM); MIC [9, 17]: 16.6 µg/mL (≈ 39.1 µM); MIC ([10]; Hansenula anomala, DSM6766, starting concentration 66.7 μg/mL, read-out: MIC): 66.6 µg/mL (≈ 157 µM); IC50 (breast cancer MCF-7; Homo sapiens, MCF7): 17.7 µM; IC50 (lung cancer A549; Homo sapiens): 20.8 µM; IC50 (ovary cancer SK-OV-3; Homo sapiens, SK-OV-3): 42.5 µM; IC50 (squamous cancer A431; Homo sapiens, A-431): 19.3 µM; IC50 (mammalian cell lines; A431, MCF-7, A549, SKOV-3 and PC-3, read-out: IC50, range over five other mammalian cell lines): 17.7 to 42.5 µM |
| CCC(C)C=C(C)C=CC1=CC2=C(Cl)C(=O)C3(C)OC(=O)C(C(C)O)C3C2=CO1 (centres unmarked) [Compound 7, isochromophilonol A1/A2] | - |  | - | - | - |  |  | - | - | - |  | - | 5.3 µM | 12.9 µM | 1.1 µM | MIC (Bacillus subtilis DSM 10; [15]): 16.6 µg/mL (≈ 39.6 µM); MIC (Mucor hiemalis DSM 2656; [16]): 8.3 µg/mL (≈ 19.8 µM); MIC ([5]; Mycolicibacterium smegmatis, ATCC700084, starting concentration 66.7 μg/mL, read-out: MIC): 16.6 µg/mL (≈ 39.6 µM); MIC [9, 17]: 66.6 µg/mL (≈ 159 µM); IC50 (breast cancer MCF-7; Homo sapiens, MCF7): 0.9 µM; IC50 (lung cancer A549; Homo sapiens): 2.3 µM; IC50 (ovary cancer SK-OV-3; Homo sapiens, SK-OV-3): 3.3 µM; IC50 (squamous cancer A431; Homo sapiens, A-431): 4.1 µM |
| CC(C)=CCc1ccc(O)c2c1[C@@H](c1cc(C)cc3c1O[C@H](C(C)(C)O)CO3)NC2=O [diaporisoindole A] |  |  |  |  |  |  |  |  |  |  |  |  |  |  |  | inhibitory activity against MptpB (MptpB): potent inhibitory activity |
| CC(C)=CCc1ccc(O)c2c1[C@H](c1cc(C)cc3c1O[C@H](C(C)(C)O)CO3)NC2=O [diaporisoindole B] |  |  |  |  |  |  |  |  |  |  |  |  |  |  |  | inhibitory activity against MptpB (MptpB): failed to show any activity |
| beauvericin [Compound 8] | - | 8.3 µg/mL | - | - | - | 66.6 µg/mL | 8.3 µg/mL | - | 66.6 µg/mL | 33.3 µg/mL | 8.3 µg/mL | - |  |  | 1.9 µM | IC50 (breast cancer MCF-7): 2 µM; IC50 ([11]; read-out: IC50): 2.3 µM; IC50 (lung cancer A549): 2.6 µM; IC50 (mouse fibroblasts L929): 2.8 µM; IC50 (ovary cancer SK-OV-3): 3.3 µM; IC50 (squamous cancer A431): 2.4 µM |
